Assays:
[1] = biological target: T1, Glucose-dependent insulinotropic receptor (Homo sapiens) (UniProt Q8TDV5); experiment: Agonist activity at human GPR119 receptor expressed in CHO-K1 cells assessed as cAMP accumulation after 30 mins by HTRF assay relative to AR231453; type: functional, cell-based
T1 sequence (whole entry): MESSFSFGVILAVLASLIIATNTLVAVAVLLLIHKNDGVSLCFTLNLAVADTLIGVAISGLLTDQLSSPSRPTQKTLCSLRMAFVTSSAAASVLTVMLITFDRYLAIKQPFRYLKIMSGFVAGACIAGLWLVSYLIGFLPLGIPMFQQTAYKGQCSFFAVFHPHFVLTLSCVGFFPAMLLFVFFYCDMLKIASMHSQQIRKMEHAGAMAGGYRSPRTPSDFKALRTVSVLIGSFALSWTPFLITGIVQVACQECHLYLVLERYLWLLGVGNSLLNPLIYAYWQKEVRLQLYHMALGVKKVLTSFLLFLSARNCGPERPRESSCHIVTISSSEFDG

[2] = biological target: T2, Glucose-dependent insulinotropic receptor (Homo sapiens, UniProt Q8TDV5); experiment: Agonist activity at human GPR119 receptor expressed in CHO-K1 cells assessed as cAMP accumulation after 30 mins by HTRF assay; type: functional, cell-based
T2 sequence (Q8TDV5 whole entry): T1 sequence (whole entry)

[3] = biological target: T1, Glucose-dependent insulinotropic receptor (Homo sapiens); experiment: Agonist activity at human GPR119 receptor expressed in CHO-K1 cells assessed as cAMP accumulation at 1 uM after 30 mins by HTRF assay; type: functional, cell-based
[4] = biological target: T3, Glucose-dependent insulinotropic receptor (Mus musculus) (UniProt Q7TQP3); experiment: Agonist activity at mouse GPR119 receptor expressed in CHO-K1 cells assessed as cAMP accumulation after 30 mins by HTRF assay relative to AR231453; type: functional, cell-based
T3 sequence (whole entry): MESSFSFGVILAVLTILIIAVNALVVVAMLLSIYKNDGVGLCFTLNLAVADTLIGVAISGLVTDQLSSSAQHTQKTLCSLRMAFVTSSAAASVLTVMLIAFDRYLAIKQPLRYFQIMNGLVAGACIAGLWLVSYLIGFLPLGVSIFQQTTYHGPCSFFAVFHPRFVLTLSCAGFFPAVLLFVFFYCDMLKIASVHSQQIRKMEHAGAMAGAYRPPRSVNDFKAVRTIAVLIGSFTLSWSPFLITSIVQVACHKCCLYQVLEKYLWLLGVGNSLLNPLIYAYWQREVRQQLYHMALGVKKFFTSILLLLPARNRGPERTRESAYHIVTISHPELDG

[5] = biological target: T4, Glucose-dependent insulinotropic receptor (Mus musculus, UniProt Q7TQP3); experiment: Agonist activity at mouse GPR119 receptor expressed in CHO-K1 cells assessed as cAMP accumulation after 30 mins by HTRF assay; type: functional, cell-based
T4 sequence (Q7TQP3 whole entry): T3 sequence (whole entry)

Mus musculus [6] = experiment: Antidiabetic activity in fasted C57BL/6j mouse assessed as increase in plasma GLP-1 level at 30 mg/kg, po after 30 mins by ELISA relative to control; type: functional
Mus musculus [7] = experiment: Antidiabetic activity in fasted C57BL/6j mouse assessed as decrease in glucose excursion at 3 mg/kg, po administered 30 mins prior to oral glucose-challenge measured after 120 mins by oral glucose tolerance test; type: functional; parameters: scale not given: the % may be the effect or the level left
Mus musculus [8] = experiment: Antidiabetic activity in po dosed fasted C57BL/6j mouse assessed as decrease in glucose excursion administered 30 mins prior to oral glucose-challenge by oral glucose tolerance test; type: functional, organism-based
Mus musculus [9] = experiment: Antidiabetic activity in fasted C57BL/6j mouse assessed as decrease in glucose excursion at 10 mg/kg, po administered 30 mins prior to subcutaneous glucose-challenge after 120 mins by subcutaneous glucose tolerance test; type: functional; parameters: scale not given: the % may be the effect or the level left
Mus musculus [10] = experiment: Antidiabetic activity in fasted C57BL/6j mouse assessed as decrease in glucose excursion at 10 mg/kg, po administered 30 mins prior to oral glucose-challenge measured after 120 mins by oral glucose tolerance test; type: functional; parameters: scale not given: the % may be the effect or the level left
[11] = biological target: T1, Glucose-dependent insulinotropic receptor (Homo sapiens); experiment: Agonist activity at human GPR119 receptor expressed in CHO-K1 cells assessed as cAMP accumulation at 10 uM after 30 mins by HTRF assay; type: functional, cell-based

Compound | Emax [1] | EC50 [2] | Emax [4] | EC50 [5] | also measured
CC(C)(C)OC(=O)N1CCC(CCCC(=O)Nc2ccc3c(c2)CCS3(=O)=O)CC1 | 56% | 2610 nM |  |  | 
CC(C)(C)OC(=O)N1CCC(CCCOc2ccc3c(c2)CCS3(=O)=O)CC1 | 84% | 736 nM |  |  | 
CC(C)(C)OC(=O)N1CCC(CCCNc2ccc3c(c2)OCCS3(=O)=O)CC1 | 81% | 511 nM |  |  | 
CC(C)(C)OC(=O)N1CCC(OCCNc2ccc3c(c2)CCS3(=O)=O)CC1 | 33% |  |  |  | Activity [3]: 33%
CC(C)(C)OC(=O)N1CCC(CCCNc2ccc3c(c2)NNS3(=O)=O)CC1 | 99% | 268 nM | 95% | 331 nM | 
CC(C)c1noc(N2CCC(CCCNc3ccc4c(c3)OCC4=O)CC2)n1 | 94% | 73 nM |  |  | 
CC(C)c1nc(N2CCC(CCCNc3ccc4c(c3)OCC4=O)CC2)no1 | 91% | 161 nM |  |  | 
CC(C)c1noc(N2CCC(CCCNc3ccc4c(c3)C(=O)CC4)CC2)n1 | 110% | 58 nM | 113% | 158 nM | 
CC(C)(C)OC(=O)N1CCC(CCCNc2ccc3c(c2)C(=O)NC3)CC1 | 89% | 734 nM | 97% | 892 nM | 
CC(C)(C)OC(=O)N1CCC(CCCNc2ccc3c(c2)CCCCC3=O)CC1 | 38% | 770 nM |  |  | 
COC(=O)c1cnc(N2CCC(CCCNc3ccc4c(c3)OCC4=O)CC2)nc1 | 85% | 149 nM | 67% | 139 nM | 
CC(C)(C)OC(=O)N1CCC(CCCNc2ccc3c(c2)OCC3=O)CC1 | 94% | 52 nM | 108% | 66 nM | 
CC(C)(C)OC(=O)N1CCC(CCCCCNc2ccc3c(c2)CCS3(=O)=O)CC1 | 65% | 145 nM |  |  | 
CC(C)(C)OC(=O)N1CCC(CCCNc2ccc3c(c2)CCS3(=O)=O)CC1 | 80% | 270 nM | 83% | 224 nM | 
COc1cnc(N2CCC(CCCNc3ccc4c(c3)OCC4=O)CC2)nc1 | 101% | 115 nM | 106% | 60 nM | 
CC(C)(C)OC(=O)N1CCC(CCCNc2ccc3c(c2)CNC3=O)CC1 | 91% | 550 nM | 102% | 515 nM | 
CC(C)(C)OC(=O)N1CCC(CCCNc2ccc3c(c2)C(=O)CC3)CC1 | 98% | 46 nM | 110% | 123 nM | 
CC(C)(C)OC(=O)N1CCC(CCCNc2ccc3c(c2)C(=O)CO3)CC1 | 95% | 88 nM | 116% | 262 nM | 
CC(C)(C)OC(=O)N1CCC(CCCNc2ccc3c(c2)CCC3=O)CC1 | 85% | 86 nM | 105% | 87 nM | 
CC(C)(C)OC(=O)N1CCC(CCCCNc2ccc3c(c2)CCS3(=O)=O)CC1 | 62% | 210 nM |  |  | 
CCc1cnc(N2CCC(CCCNc3ccc4c(c3)OCC4=O)CC2)nc1 | 115% | 117 nM | 98% | 159 nM | 
CC(C)(C)OC(=O)N1CCC(CCCNc2ccc3c(c2)S(=O)(=O)CC3)CC1 | 25% | 1030 nM |  |  | 
CC(C)(C)OC(=O)N1CCC(CCCNc2ccc3c(c2)C(=O)CCO3)CC1 | 100% | 272 nM | 108% | 351 nM | 
CC(C)c1nnc(N2CCC(CCCNc3ccc4c(c3)OCC4=O)CC2)o1 | 85% | 704 nM | 88% | 1020 nM | 
CCc1cnc(N2CCC(CCCNc3ccc4c(c3)C(=O)CC4)CC2)nc1 | 113% | 51 nM | 110% | 167 nM | fold change (FC) (Mus musculus [6]): >2; Activity (Mus musculus [7]): 29%; Activity (Mus musculus [8]): Dose-dependent effect; Activity (Mus musculus [9]): 32%; Activity (Mus musculus [10]): 38%
CC(C)(C)OC(=O)N1CCC(CCCNc2ccc3c(c2)OCS3(=O)=O)CC1 | 93% | 254 nM | 105% | 266 nM | 
CC(C)c1nsc(N2CCC(CCCNc3ccc4c(c3)OCC4=O)CC2)n1 | 10% | 121 nM | 93% | 812 nM | 
CN(CCNc1ccc2c(c1)CCS2(=O)=O)C1CCN(C(=O)OC(C)(C)C)CC1 | 10% |  |  |  | Activity [11]: 10%
